In test [1] the test system is insulin-resistant HepG2 cells. The test is described as follows: Western blotting, insulin-resistant HepG2 model. Type of test: cell-based, human. The settings on record: 24 h. As to the method: HepG2 cells were obtained directly from ATCC (HB-8065) and cultured in DMEM with low glucose, supplemented with fetal bovine serum, 100 U/mL penicillin G, and […] streptomycin. The media was freshly prepared and sterilized by filtration. Cells were maintained with a maximum of 10 passages before being discarded. For cell counting, the cells were washed twice with phosphate-buffered saline (PBS), trypsinized, and counted using a Neubauer chamber. For the insulin-resistant model, 75,000 cells per well were seeded in 6-well plates at 37 °C in 5% CO2 and cultured for 72 h. Subsequently, insulin (0.1 μM) was added to induce insulin resistance for 24 h. After this period, inhibitors were incubated for 24 h, followed by a final 30 min insulin stimulation (0.1 μM) before protein extraction. For the normal model, 75,000 cells per well were seeded in 6-well plates at 37 °C in 5% CO2 and cultured for 96 h. After that, the cells were incubated with the inhibitors for 24 h, followed by protein extraction.
Treated cells were washed twice with 1 mL of PBS, and proteins were extracted using 300 μL of a buffer solution containing 10% sodium deoxycholate in 10% TEAB, supplemented with a protease and phosphatase inhibitor cocktail. The extracts were heated at 80 °C for 5 min and dissociated by repeated passages through an insulin syringe. The cell extracts were centrifuged at 15,000 rpm for 15 min at 4 °C, and the supernatant was collected. Protein quantification was performed using the bicinchoninic acid assay, and aliquots were prepared for Western blotting. SDS-PAGE was conducted, and proteins were transferred onto a nitrocellulose membrane. The membrane was blocked with 10% skim milk in TBST for 1 h and incubated overnight with primary antibodies (1:400 dilution). Secondary antibodies conjugated to horseradish peroxidase were diluted 1:2,000, and the membranes were incubated for 1 h at room temperature. Blots were visualized using the ChemiDoc MP (Bio-Rad), and densitometric analysis was performed with ImageJ (U.S. National Institutes of Health). Statistical analyses were conducted using GraphPad Prism 8.0.
resistance model in HepG2 cells . a) Western blotting representative analysis (n=3) of PTP1B, p -AKT, p-IRS1 and p-STAT3 levels
of HepG2 cells treated with the compounds at 24 h of treatment. β-actin was employed as loading control. b) Densitometric
analysis of western blot images employing ImageJ analysis software. Bar graphs represent the mean ± SEM of normalized values.
The control levels were set to 1. Asterisks indicate statistical significance according to the Dunn test. p* < 0.05.
(1 picture or pasted object on this page, not shown here)
(In general: In western blotting, separated proteins are transferred to a membrane and probed.)

Test [2] relates to HepG2 cells. The test is described as follows: GC-MS untargeted metabolomic analysis. It counts as cell-based, human. Conditions: HepG2, 30 μM for 24 h, vs DMSO. As to the method:
HepG2 cells are commonly utilized in metabolomics to study alterations in metabolic pathways, such as glycolysis and lipid metabolism, when exposed to various substances, − due to their ability to sustain liver-specific functions. To explore the metabolic changes induced by the 4b and 5g derivatives in HepG2 cells, an untargeted metabolomic analysis using GC-MS was carried out. […] This vitamin is essential for synthesizing coenzyme A (CoA), which in turn produces acetyl-CoA and succinyl-CoA, all of which are crucial for ATP production in the tricarboxylic acid (TCA) cycle. […] On the other hand, our findings indicate that 5g leads to a reduction in intracellular citrate levels, which may promote glycolysis and diminish gluconeogenesis similarly to metformin. Consequently, this could potentially lower hepatic glucose output. In summary, the increased intracellular levels of pantothenic acid and glycine, combined with the lowered citrate levels achieved by 5g, may play a significant role in improving insulin resistance and T2DM.
5 GC-MS-based untargeted metabolomic analysis of HepG2. (a) Heatmap analysis of HepG2 cells treated with DMSO (D, vehicle), 4b, or 5g for 24 h. (b) Principal Component Analysis (PCA) of untargeted metabolomic analysis of HepG2 treated with DMSO (vehicle), 4b, and 5g at 30 μM for 24 h (c). Statistically significant metabolites altered between the groups. Graphs were constructed using sum-normalized peak height values. Asterisks indicate statistical significance according to the Dunn test, with p-values denoted as follows: *p < 0.05, **p < 0.01. Created in BioRender. Matuz Mares, D. (2025) https://BioRender.com/hpj5plg.
The treated HepG2 cells were washed twice with 1 mL of PBS, and the liquid was entirely removed by pipetting. Posteriorly, 1 mL of ice-cold methanol containing 2.5 μL of internal standard, consisting of tridecanoic acid (0.1 mg/mL), was added, and the mixture was bath sonicated for 2 min. All the extract was recovered in microcentrifuge tubes, thoroughly vortexed, and then centrifuged for 10 min at 15,000 rpm at 4 °C. The supernatant was recovered and dried overnight using a SpeedVac (SPD 121P, Thermo Scientific). 40 μL of 20 mg/mL […] was added under nitrogen flow and incubated for 90 min at 37 °C. Posteriorly, the tube was centrifuged, and the supernatant was fully recovered and transferred to an insert tube with 40 μL of MBSTFA 1% TMCS, vortexed and incubated for 30 min. One μL of this extract was injected into a GC/MS (Agilent 5977A/7890B, Santa Clara, CA, USA) system with HP5-MS (Agilent) column with helium 99.9999% purity under the following parameters: splitless, flow 1 mL/min, electron ionization, with a range of 50–500 m/z. The chromatography consisted of a 1 min hold at 60 °C, followed by a ramp of 10 °C/min to 325 °C, and a final hold time of 10 min. Raw data was transformed with Agilent Mass Hunter to mz data, and deconvolution and alignment were performed with Mzmine2.0. Univariate and multivariate analyses were performed with Metaboanalyst 6.0 and GraphPad.

Consider `CC1(C)c2c(cnn2-c2ccc(S(N)(=O)=O)cc2)C[C@]2(C)[C@H]3C(=O)C=C4[C@@H]5C[C@@](C)(C(=O)O)CC[C@]5(C)CC[C@@]4(C)[C@]3(C)CC[C@@H]12` [compound 5g, (20β)-11-Oxo-2′-(4-sulfamoylphenyl)-2′H-oleana-2,12-dieno[3,2-c]pyrazol-29-oic Acid], for which the p-IRS levels result in test [1] is listed as “tendency to increase p-IRS levels”. For the same molecule, in test [2], the glycine levels entry is on record as “markedly increasing”, the intracellular citrate levels entry is given as “reduction”, the intracellular fructose levels entry is recorded as “significantly lowers” and the intracellular glucose levels entry is “significantly lowers”. In addition, in test [2], the pantothenic acid levels entry is on record as “significant increase”.
In the case of `CC1(C)c2[nH]c3ccc(OC(F)F)cc3c2C[C@]2(C)[C@H]3C(=O)C=C4[C@@H]5C[C@@](C)(C(=O)O)CC[C@]5(C)CC[C@@]4(C)[C@]3(C)CC[C@@H]12` [compound 4b, (20β)-5′-(Difluoromethoxy)-11-oxo-1′H-oleana-2,12-dieno[3,2-b]indol-29-oic Acid], in test [2], the glycine levels entry is given as “not statistically significant”, the intracellular fructose levels entry is listed as “not statistically significant”, the intracellular glucose levels result is “not statistically significant” and the “intracellular palmitic acid levels” value is on record as “significantly reduce”. In test [2], the “intracellular stearic acid levels” value is recorded as “significantly reduce” and the pantothenic acid levels entry is listed as “not statistically significant”.

The record behind these values is article PMC12921516 (ACS Bio & Med Chem Au, 2025).
